Like-named read-outs stand apart in the source and are kept apart here. Each block holds one molecule with its values, some of them ahead of it.
Experiments:
[1] = system: Corynebacterium glutamicum ATCC13032; assay: Bacterial growth in microscale cultivation, C. glutamicum; assay type: cell-based; settings: for activity at 4 µM / activity at 40 µM / activity at 400 µM / activity at 55 µM / activity at 110 µM / activity at 550 µM / activity at 5 µM / activity at 50 µM / activity at 500 µM / activity at 100 µM: Corynebacterium glutamicum; for activity at 4 µM / activity at 40 µM / activity at 400 µM / Lag Phase / activity at 55 µM / activity at 110 µM / activity at 550 µM: relative to control
Description: The following bacteria were cultivated in the presence of trans-chalcone derived inhibitors: Corynebacterium glutamicum ATCC13032[43], Escherichia coli K-12 MG1655[44], Pseudomonas putida KT2440[45], and Bacillus subtilis 168[46]. The growth of these bacteria was monitored in flower-well plates shaken at 1200 rpm as backscatter at 620 nm (gain 20) using a BioLector® microscale cultivation system (m2p labs, Baesweiler, Germany). For further experimental details please refer to the Supplementary Information.
medium or the appropriate minimal medium and shaken at 140 rpm overnight. For inoculation of
the main culture, cells equivalent to an optical density at 600 nm of 0.5 (C. glutamicum, E. coli,
and P. putida) or 0.25 (B. subtilis) in 800 µL medium were washed and resuspended in fresh
media. Inhibitor substances were dissolved in DMSO and added to the media to a final
Since the least polar trans-chalcone and 2’-hydroxychalcone precipitated in the growth media at
the highest concentrations, the maximal concentration of these compounds was reduced to 400
µM and 100 µM, respectively. The final backscatter at 620 nm, the growth rate (h-1), and the
duration of the lag phase of all cultures were determined in a BioLector microscale cultivation
system in comparison to negative controls supplemented with the solvent DMSO. A longer lag

[2] = biological target: T1, F. trinervia PEPC (Flaveria trinervia, UniProt P30694); assay: biochemical; assay type: biochemical; settings: for Selectivity C4/C3: C4 PEPC over C3 isoform; for IC50: C4 PEPC
T1 construct: the full-length ppcA gene of PEPC from F. trinervia (EMBL-Bank X61304); made in house; host or cells: Escherichia coli BL21(DE3)
T1 sequence (P30694 1-966): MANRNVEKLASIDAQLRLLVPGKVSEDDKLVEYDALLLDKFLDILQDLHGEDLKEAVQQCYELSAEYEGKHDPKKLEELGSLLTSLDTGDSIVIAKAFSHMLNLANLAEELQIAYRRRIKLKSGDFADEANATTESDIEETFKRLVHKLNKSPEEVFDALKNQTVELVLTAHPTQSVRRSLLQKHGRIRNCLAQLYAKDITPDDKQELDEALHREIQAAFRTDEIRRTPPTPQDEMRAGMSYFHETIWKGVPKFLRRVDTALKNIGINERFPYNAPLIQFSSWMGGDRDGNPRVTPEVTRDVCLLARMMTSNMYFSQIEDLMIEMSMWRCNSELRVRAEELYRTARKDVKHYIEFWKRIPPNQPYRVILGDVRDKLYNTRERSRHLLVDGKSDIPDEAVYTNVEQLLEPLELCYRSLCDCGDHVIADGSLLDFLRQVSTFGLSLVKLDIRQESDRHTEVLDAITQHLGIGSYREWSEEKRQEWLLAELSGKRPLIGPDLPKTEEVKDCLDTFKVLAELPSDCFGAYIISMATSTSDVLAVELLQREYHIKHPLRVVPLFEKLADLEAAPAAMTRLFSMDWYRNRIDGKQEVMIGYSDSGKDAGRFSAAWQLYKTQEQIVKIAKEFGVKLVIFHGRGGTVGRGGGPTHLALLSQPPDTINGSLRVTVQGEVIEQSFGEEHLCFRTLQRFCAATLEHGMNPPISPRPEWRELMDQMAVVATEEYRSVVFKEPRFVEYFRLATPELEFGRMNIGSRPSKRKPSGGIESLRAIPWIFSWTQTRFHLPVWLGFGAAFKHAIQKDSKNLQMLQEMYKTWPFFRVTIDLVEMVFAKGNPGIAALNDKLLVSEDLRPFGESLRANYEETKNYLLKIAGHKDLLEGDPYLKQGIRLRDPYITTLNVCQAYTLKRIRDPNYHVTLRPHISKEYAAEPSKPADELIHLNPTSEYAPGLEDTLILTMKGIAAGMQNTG
Description: The IC50 values of small molecule compounds on F. pringlei and F. trinervia PEPCs were determined using PEPC coupled spectrophotometric assay. The amount of NADH oxidized by NADH-malate dehydrogenase was measured by the decrease in absorbance at 340 nm in a Beckman DU-800 spectrophotometer, thus the value is in proportion to the corresponding substrate conversion of the enzyme. […] The reactions were started by adding two folds of the Km value of PEP for each enzyme. The data were analyzed using GraFit (Erithacus Software, UK).

[3] = read-out: IC50 F. trinervia PEPC

Structure (SMILES): O=C(/C=C/c1ccccc1O)c1ccc(O)cc1O [Compound 7, 2′,4′,2-Trihydroxychalcone]
- activity at 4 µM ([1]; ATCC13032, complex medium, 4 µM, read-out: Final Backscatter): 100%
- activity at 4 µM ([1]; ATCC13032, complex medium, 4 µM, read-out: Growth rate): 99.1%
- activity at 40 µM ([1]; ATCC13032, complex medium, 40 µM, read-out: Final Backscatter): 98.3%
- activity at 40 µM ([1]; ATCC13032, complex medium, 40 µM, read-out: Growth rate): 98.8%
- activity at 400 µM ([1]; ATCC13032, complex medium, 400 µM, read-out: Final Backscatter): 110%
- activity at 400 µM ([1]; ATCC13032, complex medium, 400 µM, read-out: Growth rate): 91.2%
- activity at 4 µM ([1]; ATCC13032, minimal medium, 4 µM, read-out: Final Backscatter): 98.1%
- activity at 4 µM ([1]; ATCC13032, minimal medium, 4 µM, read-out: Growth rate): 102%
- activity at 40 µM ([1]; ATCC13032, minimal medium, 40 µM, read-out: Final Backscatter): 101%
- activity at 40 µM ([1]; ATCC13032, minimal medium, 40 µM, read-out: Growth rate): 98.7%
- activity at 400 µM ([1]; ATCC13032, minimal medium, 400 µM, read-out: Final Backscatter): 94.3%
- activity at 400 µM ([1]; ATCC13032, minimal medium, 400 µM, read-out: Growth rate): 52.9%
- Lag Phase ([1]; complex medium, 4 µM): 101,6%
- Lag Phase ([1]; complex medium, 40 µM): 106,3%
- Lag Phase ([1]; complex medium, 400 µM): 141,2%
- Lag Phase ([1]; minimal medium, 4 µM): 100,0%
- Lag Phase ([1]; minimal medium, 40 µM): 103,0%
- Lag Phase ([1]; minimal medium, 400 µM): 181,9%
- Selectivity C4/C3 [2]: 2.3 fold
- IC50 [2, 3]: 28.2 ± 2.2 µM

- IC50 [2, 3]: 42.1 ± 11.3 µM
Structure (SMILES): O=C(/C=C/c1ccccc1)c1cc(O)ccc1O [Compound 5, 2′,5′-Dihydroxychalcone]
- growth ([1]; 550 μM, minimal media): abolished growth
- activity at 55 µM ([1]; ATCC13032, complex medium, 55 µM, read-out: Final Backscatter): 106%
- activity at 55 µM ([1]; ATCC13032, complex medium, 55 µM, read-out: Growth rate): 107%
- activity at 110 µM ([1]; ATCC13032, complex medium, 110 µM, read-out: Final Backscatter): 103%
- activity at 110 µM ([1]; ATCC13032, complex medium, 110 µM, read-out: Growth rate): 110%
- activity at 550 µM ([1]; ATCC13032, complex medium, 550 µM, read-out: Final Backscatter): 118%
- activity at 550 µM ([1]; ATCC13032, complex medium, 550 µM, read-out: Growth rate): 79%
- activity at 55 µM ([1]; ATCC13032, minimal medium, 55 µM, read-out: Final Backscatter): 99.7%
- activity at 55 µM ([1]; ATCC13032, minimal medium, 55 µM, read-out: Growth rate): 86.9%
- activity at 110 µM ([1]; ATCC13032, minimal medium, 110 µM, read-out: Final Backscatter): 101%
- activity at 110 µM ([1]; ATCC13032, minimal medium, 110 µM, read-out: Growth rate): 79.5%
- activity at 550 µM ([1]; ATCC13032, minimal medium, 550 µM, read-out: Final Backscatter): 18.8%
- Influence on bacterial growth ([1]; Minimal medium, highest concentration tested (10× IC50) if not stated otherwise): μ↓ (≥IC50), no growth (10× IC50)
- Lag Phase ([1]; complex medium, 55 µM): 96,2%
- Lag Phase ([1]; complex medium, 110 µM): 98,4%
- Lag Phase ([1]; complex medium, 550 µM): 120,7%
- Lag Phase ([1]; minimal medium, 55 µM): 114,0%
- Lag Phase ([1]; minimal medium, 110 µM): 133,1%

Structure (SMILES): O=C(/C=C/c1ccccc1)c1ccccc1O [Compound 2, 2′-Hydroxychalcone]
- activity at 5 µM ([1]; ATCC13032, read-out: Final Backscatter, complex medium, 5 µM, relative to control): 101%
- activity at 50 µM ([1]; ATCC13032, read-out: Final Backscatter, complex medium, 50 µM, relative to control): 105%
- activity at 500 µM ([1]; ATCC13032, read-out: Final Backscatter, complex medium, 500 µM, relative to control): 111%
- activity at 5 µM ([1]; ATCC13032, read-out: Final Backscatter, minimal medium, 5 µM, relative to control): 102%
- activity at 50 µM ([1]; ATCC13032, read-out: Final Backscatter, minimal medium, 50 µM, relative to control): 99.6%
- activity at 100 µM ([1]; ATCC13032, read-out: Final Backscatter, minimal medium, 100 µM, relative to control): 101%
- activity at 500 µM ([1]; ATCC13032, read-out: Final Backscatter, minimal medium, 500 µM, relative to control): 102%
- activity at 5 µM ([1]; ATCC13032, read-out: Growth rate, complex medium, 5 µM, relative to control): 96.2%
- activity at 50 µM ([1]; ATCC13032, read-out: Growth rate, complex medium, 50 µM, relative to control): 91.5%
- activity at 500 µM ([1]; ATCC13032, read-out: Growth rate, complex medium, 500 µM, relative to control): 102%
- activity at 5 µM ([1]; ATCC13032, read-out: Growth rate, minimal medium, 5 µM, relative to control): 101%
- activity at 50 µM ([1]; ATCC13032, read-out: Growth rate, minimal medium, 50 µM, relative to control): 99.6%
- activity at 100 µM ([1]; ATCC13032, read-out: Growth rate, minimal medium, 100 µM, relative to control): 101%
- activity at 500 µM ([1]; ATCC13032, read-out: Growth rate, minimal medium, 500 µM, relative to control): 92.9%
- Lag Phase ([1]; complex medium, 5 µM): 98,4%
- Lag Phase ([1]; complex medium, 50 µM): 100,0%
- Lag Phase ([1]; complex medium, 500 µM): 101,1%
- Lag Phase ([1]; minimal medium, 5 µM): 98,7%
- Lag Phase ([1]; minimal medium, 50 µM): 102,6%
- Lag Phase ([1]; minimal medium, 100 µM): 104,2%
- Lag Phase ([1]; minimal medium, 500 µM): 124,3%
- Selectivity C4/C3 [2]: 1.5 fold
- IC50 ([2]; IC50 F. trinervia PEPC): 51.9 ± 15 µM

From article PMC4893628, “Chalcone-based Selective Inhibitors of a C4 Plant Key Enzyme as Novel Potential Herbicides” (Scientific Reports, 2016)
